Laboratory results taken from publication PMC5053573, “Structure-Based Design of Tetrahydroisoquinoline-7-carboxamides as Selective Discoidin Domain Receptor 1 (DDR1) Inhibitors” (Journal of Medicinal Chemistry, 2016).

What was measured:
Assay in all cases: biochemical
PFCDPK1(P.falciparum) = target: T1, PFCDPK1(P.falciparum) (Plasmodium falciparum, UniProt P62344); settings: competition binding; read-out: %Ctrl @ 1000nM
T1 construct: gene CDPK1

LTK = LTK (Homo sapiens, UniProt P29376); settings: competition binding; read-out: %Ctrl @ 1000nM
[1] = target: ABL1(H396P)-phosphorylated (Homo sapiens, UniProt P00519, H396P); settings: read-out: %Ctrl @ 1000nM
[2] = target: ABL1(Q252H)-phosphorylated (Homo sapiens, UniProt P00519, Q252H); settings: read-out: %Ctrl @ 1000nM
ALK = ALK (Homo sapiens, UniProt Q9UM73); settings: read-out: %Ctrl @ 1000nM
ALK(L1196M) = ALK(L1196M) (Homo sapiens, UniProt Q9UM73, L1196M); settings: read-out: %Ctrl @ 1000nM
CLK2 = CLK2 (Homo sapiens, UniProt P49760); settings: read-out: %Ctrl @ 1000nM
DMPK2 = target: T2, DMPK2 (Homo sapiens, UniProt Q6DT37); settings: read-out: %Ctrl @ 1000nM
T2 construct: gene CDC42BPG
T2 sequence (Q6DT37 whole entry): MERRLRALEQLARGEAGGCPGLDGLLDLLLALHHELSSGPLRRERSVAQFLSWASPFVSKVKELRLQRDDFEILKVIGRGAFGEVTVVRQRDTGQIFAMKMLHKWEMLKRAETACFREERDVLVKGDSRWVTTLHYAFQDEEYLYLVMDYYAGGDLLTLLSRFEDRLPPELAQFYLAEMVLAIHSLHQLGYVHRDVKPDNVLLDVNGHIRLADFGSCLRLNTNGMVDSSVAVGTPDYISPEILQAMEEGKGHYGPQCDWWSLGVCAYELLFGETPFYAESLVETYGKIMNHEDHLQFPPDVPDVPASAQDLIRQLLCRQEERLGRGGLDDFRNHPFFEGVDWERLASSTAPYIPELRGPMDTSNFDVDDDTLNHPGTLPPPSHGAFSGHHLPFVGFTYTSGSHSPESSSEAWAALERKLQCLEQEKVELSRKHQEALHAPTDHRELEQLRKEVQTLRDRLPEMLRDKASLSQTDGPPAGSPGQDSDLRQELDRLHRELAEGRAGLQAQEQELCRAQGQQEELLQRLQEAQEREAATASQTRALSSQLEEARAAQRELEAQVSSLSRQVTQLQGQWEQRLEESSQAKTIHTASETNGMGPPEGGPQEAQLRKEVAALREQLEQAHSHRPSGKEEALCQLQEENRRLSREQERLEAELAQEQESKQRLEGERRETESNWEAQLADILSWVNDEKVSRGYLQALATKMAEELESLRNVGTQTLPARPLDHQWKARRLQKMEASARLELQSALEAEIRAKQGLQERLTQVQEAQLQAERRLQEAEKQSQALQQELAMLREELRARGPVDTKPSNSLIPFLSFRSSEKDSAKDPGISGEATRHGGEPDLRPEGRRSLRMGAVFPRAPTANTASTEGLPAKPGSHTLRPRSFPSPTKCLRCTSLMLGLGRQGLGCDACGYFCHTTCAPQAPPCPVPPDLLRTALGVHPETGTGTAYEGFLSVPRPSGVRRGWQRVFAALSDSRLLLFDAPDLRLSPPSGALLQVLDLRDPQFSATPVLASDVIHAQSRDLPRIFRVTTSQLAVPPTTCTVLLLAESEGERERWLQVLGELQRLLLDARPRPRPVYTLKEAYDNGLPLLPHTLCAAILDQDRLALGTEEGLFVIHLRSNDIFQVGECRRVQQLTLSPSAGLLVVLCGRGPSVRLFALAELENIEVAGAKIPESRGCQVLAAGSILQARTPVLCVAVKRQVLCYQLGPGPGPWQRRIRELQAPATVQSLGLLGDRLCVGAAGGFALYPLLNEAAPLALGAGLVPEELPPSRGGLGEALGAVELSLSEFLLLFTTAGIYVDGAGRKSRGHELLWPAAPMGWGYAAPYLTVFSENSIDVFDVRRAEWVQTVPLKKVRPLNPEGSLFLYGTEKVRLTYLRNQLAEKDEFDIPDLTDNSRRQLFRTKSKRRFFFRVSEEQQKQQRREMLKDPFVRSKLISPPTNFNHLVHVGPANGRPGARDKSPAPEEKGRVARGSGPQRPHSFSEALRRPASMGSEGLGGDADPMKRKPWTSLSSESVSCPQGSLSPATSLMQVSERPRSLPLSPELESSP

EGFR(S752-I759del) = EGFR(S752-I759del) (Homo sapiens, UniProt P00533, DEL752-759); settings: read-out: %Ctrl @ 1000nM
EIF2AK1 = EIF2AK1 (Homo sapiens, UniProt Q9BQI3); settings: read-out: %Ctrl @ 1000nM
FER = FER (Homo sapiens, UniProt P16591); settings: read-out: %Ctrl @ 1000nM
FLT3-autoinhibited = FLT3-autoinhibited (Homo sapiens, UniProt P36888); settings: read-out: %Ctrl @ 1000nM
FLT4 = FLT4 (Homo sapiens, UniProt P35916); settings: read-out: %Ctrl @ 1000nM
FYN = FYN (Homo sapiens, UniProt P06241); settings: read-out: %Ctrl @ 1000nM
GRK2 = GRK2 (Homo sapiens, UniProt P25098); settings: read-out: %Ctrl @ 1000nM
IRAK1 = IRAK1 (Homo sapiens, UniProt P51617); settings: read-out: %Ctrl @ 1000nM
JNK1 = target: T3, JNK1 (Homo sapiens, UniProt P45983); settings: read-out: %Ctrl @ 1000nM
T3 construct: gene MAPK8

LKB1 = target: T4, LKB1 (Homo sapiens, UniProt Q15831); settings: read-out: %Ctrl @ 1000nM
T4 construct: gene STK11
T4 sequence (Q15831 whole entry): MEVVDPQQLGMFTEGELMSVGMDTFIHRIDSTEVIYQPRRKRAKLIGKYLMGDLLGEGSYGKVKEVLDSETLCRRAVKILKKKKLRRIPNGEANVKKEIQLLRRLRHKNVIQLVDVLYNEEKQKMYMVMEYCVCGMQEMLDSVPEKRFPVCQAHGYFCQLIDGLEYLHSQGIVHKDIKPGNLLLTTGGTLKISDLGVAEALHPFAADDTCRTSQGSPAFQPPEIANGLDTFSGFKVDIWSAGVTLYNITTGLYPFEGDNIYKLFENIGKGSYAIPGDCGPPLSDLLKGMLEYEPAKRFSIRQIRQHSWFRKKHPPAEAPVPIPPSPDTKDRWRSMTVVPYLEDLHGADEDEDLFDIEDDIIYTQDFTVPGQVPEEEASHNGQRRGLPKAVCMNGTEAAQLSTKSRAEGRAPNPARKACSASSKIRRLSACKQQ

MEK6 = target: T5, MEK6 (Homo sapiens, UniProt P52564); settings: read-out: %Ctrl @ 1000nM
T5 construct: gene MAP2K6

MKK7 = target: T6, MKK7 (Homo sapiens, UniProt O14733); settings: read-out: %Ctrl @ 1000nM
T6 construct: gene MAP2K7

MST1R = MST1R (Homo sapiens, UniProt Q04912); settings: read-out: %Ctrl @ 1000nM
MST3 = target: T7, MST3 (Homo sapiens, UniProt Q9Y6E0); settings: read-out: %Ctrl @ 1000nM
T7 construct: gene STK24

NEK1 = NEK1 (Homo sapiens, UniProt Q96PY6); settings: read-out: %Ctrl @ 1000nM
PDGFRA = PDGFRA (Homo sapiens, UniProt P16234); settings: read-out: %Ctrl @ 1000nM
PDGFRA, sequence (P16234 whole entry): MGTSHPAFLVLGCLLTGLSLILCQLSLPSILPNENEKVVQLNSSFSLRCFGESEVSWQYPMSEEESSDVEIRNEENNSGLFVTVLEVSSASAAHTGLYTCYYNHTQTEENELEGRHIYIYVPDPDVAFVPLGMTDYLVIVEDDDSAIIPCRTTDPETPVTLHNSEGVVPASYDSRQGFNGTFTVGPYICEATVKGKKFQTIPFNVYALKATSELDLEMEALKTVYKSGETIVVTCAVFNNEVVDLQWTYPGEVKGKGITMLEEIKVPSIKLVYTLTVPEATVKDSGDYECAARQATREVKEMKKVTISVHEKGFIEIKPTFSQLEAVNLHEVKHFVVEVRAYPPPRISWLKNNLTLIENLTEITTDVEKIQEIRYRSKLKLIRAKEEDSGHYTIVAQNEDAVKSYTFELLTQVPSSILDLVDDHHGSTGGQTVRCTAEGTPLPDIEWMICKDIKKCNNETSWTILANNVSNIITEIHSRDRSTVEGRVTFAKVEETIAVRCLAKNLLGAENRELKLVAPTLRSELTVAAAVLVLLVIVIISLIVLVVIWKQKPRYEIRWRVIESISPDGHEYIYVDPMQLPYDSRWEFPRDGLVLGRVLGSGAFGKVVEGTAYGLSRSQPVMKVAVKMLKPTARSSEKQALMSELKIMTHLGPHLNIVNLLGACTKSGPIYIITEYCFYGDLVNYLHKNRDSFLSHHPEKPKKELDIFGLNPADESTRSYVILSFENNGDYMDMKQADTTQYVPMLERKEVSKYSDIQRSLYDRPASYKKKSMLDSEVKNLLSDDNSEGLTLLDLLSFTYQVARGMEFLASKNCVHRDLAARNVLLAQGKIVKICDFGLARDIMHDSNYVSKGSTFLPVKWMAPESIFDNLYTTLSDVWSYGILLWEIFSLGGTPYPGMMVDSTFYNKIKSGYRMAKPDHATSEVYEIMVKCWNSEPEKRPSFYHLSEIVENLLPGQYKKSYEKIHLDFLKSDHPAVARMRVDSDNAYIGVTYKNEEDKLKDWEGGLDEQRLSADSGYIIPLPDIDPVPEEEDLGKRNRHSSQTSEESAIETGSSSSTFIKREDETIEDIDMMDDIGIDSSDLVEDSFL

PIK3CA(C420R) = PIK3CA(C420R) (Homo sapiens, UniProt P42336, C420R); settings: read-out: %Ctrl @ 1000nM
PIK3CA(C420R), sequence (P42336 whole entry C420R): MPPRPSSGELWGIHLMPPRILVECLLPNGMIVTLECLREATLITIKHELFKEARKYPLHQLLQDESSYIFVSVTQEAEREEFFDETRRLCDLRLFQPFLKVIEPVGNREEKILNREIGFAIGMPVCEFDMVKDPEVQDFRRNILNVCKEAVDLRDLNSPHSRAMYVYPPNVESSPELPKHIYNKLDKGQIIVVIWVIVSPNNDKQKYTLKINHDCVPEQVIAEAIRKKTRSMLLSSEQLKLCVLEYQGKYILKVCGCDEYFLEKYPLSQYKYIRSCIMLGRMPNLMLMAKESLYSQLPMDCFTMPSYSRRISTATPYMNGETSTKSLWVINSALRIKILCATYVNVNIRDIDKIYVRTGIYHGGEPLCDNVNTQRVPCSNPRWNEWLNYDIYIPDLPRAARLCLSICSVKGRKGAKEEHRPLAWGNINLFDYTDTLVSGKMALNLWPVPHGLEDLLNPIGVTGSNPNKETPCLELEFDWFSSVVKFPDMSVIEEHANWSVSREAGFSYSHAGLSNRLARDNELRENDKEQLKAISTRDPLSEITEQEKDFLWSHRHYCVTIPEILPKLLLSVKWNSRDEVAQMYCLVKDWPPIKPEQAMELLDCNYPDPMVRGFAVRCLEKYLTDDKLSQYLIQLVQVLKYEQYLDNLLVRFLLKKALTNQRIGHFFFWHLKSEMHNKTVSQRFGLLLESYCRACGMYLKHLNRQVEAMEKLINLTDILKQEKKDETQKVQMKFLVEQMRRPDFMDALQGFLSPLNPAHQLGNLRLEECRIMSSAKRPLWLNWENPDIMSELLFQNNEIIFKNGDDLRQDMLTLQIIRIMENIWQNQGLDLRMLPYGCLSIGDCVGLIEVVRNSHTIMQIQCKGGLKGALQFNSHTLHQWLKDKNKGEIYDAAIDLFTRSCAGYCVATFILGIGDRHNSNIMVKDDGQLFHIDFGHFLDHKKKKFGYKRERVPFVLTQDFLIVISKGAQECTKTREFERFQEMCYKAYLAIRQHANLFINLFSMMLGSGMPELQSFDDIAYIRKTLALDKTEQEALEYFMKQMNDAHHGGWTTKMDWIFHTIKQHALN

PIK3CA(H1047Y) = PIK3CA(H1047Y) (Homo sapiens, UniProt P42336, H1047Y); settings: read-out: %Ctrl @ 1000nM
PIK3CA(H1047Y), sequence (P42336 whole entry H1047Y): as the sequence (P42336 whole entry C420R) above, with R420C, H1047Y counted along it

PKN2 = PKN2 (Homo sapiens, UniProt Q16513); settings: read-out: %Ctrl @ 1000nM
ROCK2 = ROCK2 (Homo sapiens, UniProt O75116); settings: read-out: %Ctrl @ 1000nM
[3] = target: RPS6KA4(Kin.Dom.1-N-terminal) (Homo sapiens, UniProt O75676); settings: read-out: %Ctrl @ 1000nM
RPS6KA4(Kin.Dom.1-N-terminal), sequence (O75676 whole entry): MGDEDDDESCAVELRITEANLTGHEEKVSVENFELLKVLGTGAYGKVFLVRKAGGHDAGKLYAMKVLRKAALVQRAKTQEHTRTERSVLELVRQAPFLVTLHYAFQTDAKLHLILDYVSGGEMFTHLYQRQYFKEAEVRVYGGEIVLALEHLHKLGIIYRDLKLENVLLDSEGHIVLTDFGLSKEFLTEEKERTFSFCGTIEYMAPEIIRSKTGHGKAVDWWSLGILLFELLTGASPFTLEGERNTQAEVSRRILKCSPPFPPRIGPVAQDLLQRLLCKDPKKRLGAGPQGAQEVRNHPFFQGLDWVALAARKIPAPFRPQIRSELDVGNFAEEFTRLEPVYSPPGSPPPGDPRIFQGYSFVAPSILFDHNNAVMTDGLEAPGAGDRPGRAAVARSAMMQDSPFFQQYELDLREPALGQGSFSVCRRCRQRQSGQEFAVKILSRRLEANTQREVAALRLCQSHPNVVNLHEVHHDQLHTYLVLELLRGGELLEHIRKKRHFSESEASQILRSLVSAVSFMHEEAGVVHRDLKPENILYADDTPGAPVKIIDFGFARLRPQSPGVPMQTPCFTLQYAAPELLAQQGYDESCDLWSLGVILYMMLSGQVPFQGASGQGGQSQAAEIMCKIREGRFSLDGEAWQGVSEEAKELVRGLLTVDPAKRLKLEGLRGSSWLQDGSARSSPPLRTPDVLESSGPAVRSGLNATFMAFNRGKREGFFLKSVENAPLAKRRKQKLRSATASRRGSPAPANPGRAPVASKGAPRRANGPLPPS

SGK3 = SGK3 (Homo sapiens, UniProt Q96BR1); settings: read-out: %Ctrl @ 1000nM
SIK = target: T8, SIK (Homo sapiens, UniProt P57059); settings: read-out: %Ctrl @ 1000nM
T8 construct: gene SIK1

SNARK = target: T9, SNARK (Homo sapiens, UniProt Q9H093); settings: read-out: %Ctrl @ 1000nM
T9 construct: gene NUAK2

SRPK1 = SRPK1 (Homo sapiens, UniProt Q96SB4); settings: read-out: %Ctrl @ 1000nM
SRPK3 = SRPK3 (Homo sapiens, UniProt Q9UPE1); settings: read-out: %Ctrl @ 1000nM

Cc1cn(-c2cc(NC(=O)c3ccc4c(c3)CN(c3cncnc3)C[C@@H]4C)cc(C(F)(F)F)c2)cn1 [Compound 6j]
remaining binding at 1 µM (PFCDPK1(P.falciparum)): 93%
remaining binding at 1 µM (LTK): 73%
remaining activity at 1 µM [1]: 100%
remaining activity at 1 µM [2]: 95%
remaining activity at 1 µM (ALK): 95%
remaining activity at 1 µM (ALK(L1196M)): 100%
remaining activity at 1 µM (CLK2): 86%
remaining activity at 1 µM (DMPK2): 100%
remaining activity at 1 µM (EGFR(S752-I759del)): 82%
remaining activity at 1 µM (EIF2AK1): 92%
remaining activity at 1 µM (FER): 92%
remaining activity at 1 µM (FLT3-autoinhibited): 100%
remaining activity at 1 µM (FLT4): 96%
remaining activity at 1 µM (FYN): 69%
remaining activity at 1 µM (GRK2): 96%
remaining activity at 1 µM (IRAK1): 100%
remaining activity at 1 µM (JNK1): 97%
remaining activity at 1 µM (LKB1): 77%
remaining activity at 1 µM (MEK6): 98%
remaining activity at 1 µM (MKK7): 100%
remaining activity at 1 µM (MST1R): 97%
remaining activity at 1 µM (MST3): 64%
remaining activity at 1 µM (NEK1): 100%
remaining activity at 1 µM (PDGFRA): 100%
remaining activity at 1 µM (PIK3CA(C420R)): 97%
remaining activity at 1 µM (PIK3CA(H1047Y)): 45%
remaining activity at 1 µM (PKN2): 95%
remaining activity at 1 µM (ROCK2): 96%
remaining activity at 1 µM [3]: 87%
remaining activity at 1 µM (SGK3): 100%
remaining activity at 1 µM (SIK): 84%
remaining activity at 1 µM (SNARK): 100%
remaining activity at 1 µM (SRPK1): 100%
remaining activity at 1 µM (SRPK3): 93%
